# Measurements as given in the supplement of paper PMC11061612.
# Assays:
# Assay in all cases: combination Emax (second highest fraction inhibited in the dose matrix, 72 h); higher = more inhibition; extreme values may be limits of the assay
# [1] = system: HT-1080 (Other Solid Carcinomas)
# Procedure, shortened: (§1)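 Cell lines in DMEM/F12 or RPMI with 10% FBS were plated in 1536-well plates, held 24 hours at 37°C, 5% CO2, then given two-drug dose matrices for 72 hours (DMSO typically 0.2%). Viability was read by CellTiter-Glo 2.0 luminescence and scaled as inhibition from 0 (vehicle wells) to 1 (blank wells). Combination Emax is the second-highest inhibition in the matrix; Bliss excess is observed combination effect minus expected EA + EB − EA·EB, EA and EB being single-agent effects.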
# [2] = system: SNU-407 (Colorectal Carcinoma)
# Procedure, shortened: as §1
# [3] = system: OAW-28 (Ovarian Carcinoma)
# Procedure, shortened: as §1
# [4] = system: PA-TU-8988T (Pancreatic Carcinoma)
# Procedure, shortened: as §1
# [5] = system: P32-ISH (Burkitt's Lymphoma)
# Procedure, shortened: as §1
# [6] = system: SNU-C2B (Colorectal Carcinoma)
# Procedure, shortened: as §1
# [7] = system: NCI-H3118 (Head and Neck Carcinoma)
# Procedure, shortened: as §1
# [8] = system: NCI-H226 (Mesothelioma)
# Procedure, shortened: as §1
# [9] = system: NCI-H1963 (Small Cell Lung Carcinoma)
# Procedure, shortened: as §1
# [10] = system: MONO-MAC-6 (Acute Myeloid Leukemia)
# Procedure, shortened: as §1
# [11] = system: BxPC-3 (Pancreatic Carcinoma)
# Procedure, shortened: as §1
# [12] = system: KALS-1 (Glioblastoma)
# Procedure, shortened: as §1
# [13] = system: TUR (Acute Myeloid Leukemia)
# Procedure, shortened: as §1
# [14] = system: MS-1 (Small Cell Lung Carcinoma)
# Procedure, shortened: as §1
# [15] = system: MDA-MB-415 (Breast Carcinoma)
# Procedure, shortened: as §1
# [16] = system: ZR-75-30 (Breast Carcinoma)
# Procedure, shortened: as §1
# [17] = system: SK-N-SH (Neuroblastoma)
# Procedure, shortened: as §1
# [18] = system: MOLP-8 (Plasma Cell Myeloma)
# Procedure, shortened: as §1
# [19] = system: NMC-G1 (Low Grade Glioma)
# Procedure, shortened: as §1
# [20] = system: Raji (Burkitt's Lymphoma)
# Procedure, shortened: as §1
Compound,combination Emax [1],combination Emax [2],combination Emax [3],combination Emax [4],combination Emax [5],combination Emax [6],combination Emax [7],combination Emax [8],combination Emax [9],combination Emax [10],combination Emax [11],combination Emax [12],combination Emax [13],combination Emax [14],combination Emax [15],combination Emax [16],combination Emax [17],combination Emax [18],combination Emax [19],combination Emax [20]
"Cc1c2c(nn1C)CSCc1cc(n(C)n1)CSc1cc(c3ccccc3c1)OCCCc1c(C(=O)O)n(C)c3c-2c(Cl)ccc13 [AZD5991] + C[C@@H]1COCCN1C2=NC(=NC(=C2)C3(CC3)[S@](=N)(=O)C)C4=C5C=CNC5=NC=C4 [AZD6738] (first compound max 1 µM, 7x7, partner max 10 µM)",0.495,0.811,0.52,0.345,1,0.49,0.601,0.193,0.885,1,0.518,0.926,0.99,0.826,0.554,0.429,0.961,1,0.377,0.974
"Cc1c2c(nn1C)CSCc1cc(n(C)n1)CSc1cc(c3ccccc3c1)OCCCc1c(C(=O)O)n(C)c3c-2c(Cl)ccc13 [AZD5991] + C[C@@H](Nc1cc(F)cc(F)c1)c1cc(C(=O)N(C)C)cc2c(=O)cc(N3CCOCC3)oc12 [AZD8186] (first compound max 1 µM, 7x7, partner max 3 µM)",0.157,0.672,0.418,0.45,1,0.177,0.33,0.245,0.437,1,0.206,0.436,0.391,0.48,0.931,0.528,0.481,1,0.224,0.749
"Cc1c2c(nn1C)CSCc1cc(n(C)n1)CSc1cc(c3ccccc3c1)OCCCc1c(C(=O)O)n(C)c3c-2c(Cl)ccc13 [AZD5991] + Cc1cc2ncnn2cc1Nc1ncc2c(n1)n(C1CCOCC1)c(=O)n2C [AZD7648] (first compound max 1 µM, 7x7, partner max 10 µM)",0.179,0.675,0.264,0.319,1,0.158,0.308,0.203,0.334,1,0.231,0.377,0.557,0.564,0.619,0.307,0.481,1,0.171,0.728
"Cc1c2c(nn1C)CSCc1cc(n(C)n1)CSc1cc(c3ccccc3c1)OCCCc1c(C(=O)O)n(C)c3c-2c(Cl)ccc13 [AZD5991] + Cn1cnc2c(F)c(Nc3ccc(Br)cc3Cl)c(C(=O)NOCCO)cc21 [Selumetinib] (first compound max 1 µM, 7x7, partner max 3 µM)",0.428,0.789,0.352,0.393,1,0.356,0.481,0.224,0.427,1,0.483,0.24,0.629,0.375,0.398,0.281,0.414,1,0.31,0.756
"C[C@@H]1COCCN1c1cc(C2([S@](C)(=N)=O)CC2)nc(-c2ccnc3[nH]ccc23)n1 [AZD6738] + O=C(c1cc(Cc2n[nH]c(=O)c3ccccc23)ccc1F)N1CCN(C(=O)C2CC2)CC1 [Olaparib] (first compound max 10 µM, 7x7, partner max 10 µM)",0.45,0.75,0.396,0.448,0.91,0.69,0.64,0.207,0.804,0.948,0.485,0.793,0.907,0.742,0.446,0.213,0.929,0.794,0.392,0.855
"Cc1cc2ncnn2cc1Nc1ncc2c(n1)n(C1CCOCC1)c(=O)n2C [AZD7648] + C=CCn1c(=O)c2cnc(Nc3ccc(N4CCN(C)CC4)cc3)nc2n1-c1cccc(C(C)(C)O)n1 [AZD1775] (first compound max 10 µM, partner max 1 µM)",0.405,0.446,0.401,0.749,1,0.551,0.897,0.297,0.873,0.909,0.428,0.846,0.736,0.827,0.488,0.137,0.884,0.828,0.327,0.755
"Cc1cc2ncnn2cc1Nc1ncc2c(n1)n(C1CCOCC1)c(=O)n2C [AZD7648] + CCN(CCO)CCCOc1ccc2c(Nc3cc(CC(=O)Nc4cccc(F)c4)[nH]n3)ncnc2c1 [AZD2811] (first compound max 10 µM, 7x7, partner max 1 µM)",0.261,0.376,0.217,0.33,0.935,0.224,0.239,0.253,0.866,0.787,0.25,0.386,0.284,0.342,0.472,0.141,0.625,0.493,0.279,0.19
"Cc1cc2ncnn2cc1Nc1ncc2c(n1)n(C1CCOCC1)c(=O)n2C [AZD7648] + CN(C)CCCOc1ccc(-c2ccc3ncc4c(c3c2)n(C2CCOCC2)c(=O)n4C)cn1 [AZD0156] (first compound max 10 µM, 7x7, partner max 1 µM)",0.151,0.179,0.187,0.271,0.214,0.311,0.215,0.271,0.211,0.497,0.176,0.346,0.164,0.309,0.504,0.194,0.366,0.514,0.207,0.227
"Cc1cc2ncnn2cc1Nc1ncc2c(n1)n(C1CCOCC1)c(=O)n2C [AZD7648] + C[C@@H]1COCCN1C2=NC(=NC(=C2)C3(CC3)[S@](=N)(=O)C)C4=C5C=CNC5=NC=C4 [AZD6738] (first compound max 10 µM, 7x7, partner max 10 µM)",0.426,0.663,0.42,0.378,0.938,0.63,0.647,0.304,0.728,0.899,0.36,0.866,0.907,0.728,0.515,0.17,0.859,0.822,0.31,0.779
"Cc1cc2ncnn2cc1Nc1ncc2c(n1)n(C1CCOCC1)c(=O)n2C [AZD7648] + O=C(c1cc(Cc2n[nH]c(=O)c3ccccc23)ccc1F)N1CCN(C(=O)C2CC2)CC1 [Olaparib] (first compound max 10 µM, 7x7, partner max 10 µM)",0.147,0.239,0.188,0.339,0.207,0.28,0.167,0.149,0.299,0.317,0.0851,0.18,0.114,0.399,0.263,0.12,0.444,0.382,0.18,0.396
"COc1cccc2c1C(=O)c1c(O)c3c(c(O)c1C2=O)C[C@@](O)(C(=O)CO)C[C@@H]3O[C@H]1C[C@H](N)[C@H](O)[C@H](C)O1 [Doxorubicin] + Cc1cc2ncnn2cc1Nc1ncc2c(n1)n(C1CCOCC1)c(=O)n2C [AZD7648] (first compound max 1 µM, 7x7, partner max 10 µM)",0.67,0.406,0.534,0.791,0.992,0.546,0.758,0.802,0.799,0.999,0.455,0.832,0.935,0.905,0.568,0.3,0.974,0.915,0.405,0.96
"COc1cccc(OCCCN)c1-c1cc(Nc2cnc(C#N)cn2)n[nH]1 [Prexasertib] + C=CCn1c(=O)c2cnc(Nc3ccc(N4CCN(C)CC4)cc3)nc2n1-c1cccc(C(C)(C)O)n1 [AZD1775] (first compound max 1 µM, partner max 1 µM)",0.576,0.784,0.569,0.898,1,0.676,0.906,0.393,1,1,0.76,0.901,1,1,0.584,0.137,0.939,0.909,0.384,0.977
"COc1cccc(OCCCN)c1-c1cc(Nc2cnc(C#N)cn2)n[nH]1 [Prexasertib] + CCc1c2c(nc3ccc(O)cc13)-c1cc3c(c(=O)n1C2)COC(=O)[C@]3(O)CC [SN-38] (first compound max 1 µM, 7x7, partner max 0.3 µM)",0.651,0.639,1,0.921,1,0.658,0.872,0.4,1,1,0.796,0.951,1,0.987,0.538,0.14,0.947,0.847,0.315,0.983
